From paper PMC10331583, “Control of fibrosis with enhanced safety via asymmetric inhibition of prolyl‐tRNA synthetase 1” (EMBO Molecular Medicine, 2023)

Experiment: Pharmacokinetic study (plasma, LC-MS/MS)
Assay type: in vivo, C57BL/6 male mice
Details: 3, 10 and 30 mg/kg, single dose, intravenous and oral
Experimental: All experiments were performed according to the guidelines on the Institutional Animal Care and Use Committee of QuBEST BIO (QBIACUC‐A21112). Seven‐week‐old C57BL/6 male mice were purchased from Samtako (Osan, South Korea) and fed with regular chow and water ad libitum for 1 week before the experiments. Nine C57BL/6 mice in each group received three single ascending doses (3, 10, and 30 mg/kg) of DWN12088 formulated in normal saline intravenously and orally in fasted conditions. Post‐dosing serial blood samples were obtained using eye bleeding into heparinized capillary tubes with composite sampling (three mice per time point) at predetermined time points. The plasma was separated from the whole blood by centrifugation at 15,000 g for 2 min at 4°C, and then the proteins were precipitated using acetonitrile containing a deuterated‐labeled DWN12088 as an internal standard (IS).
The amount of DWN12088 in mouse plasma was measured by the AB Sciex ExionLC HPLC system connected to an AB Sciex 6500+ Qtrap mass spectrometer equipped with an electrospray ionization (ESI) source (AB Sciex LLC, Framingham, MA, USA). […] The gradient elution program was set as follows: 0–1 min, 10% B; 1.0–1.5 min, 10–95% B; 1.5–3.6 min, 95% B; 4.0–6.0 min, 10% B. Multiple reaction monitoring (MRM) was selected for the quantification of DWN12088 and IS in positive ion mode. […]

O[C@H]1CCCN[C@@H]1CCCn1cnc2c(Cl)c(Cl)ccc21 [DWN12088]
plasma concentrations: higher at 30 mg/kg
